IC50 data for two compounds are collected here from US20050153998A1, “Tetrahydroisoquinoline or isochroman compounds” (priority 2003, published 2005).

The experiment addresses T1, human ORL1 receptor (Homo sapiens, UniProt P41146).
T1 construct: expressed in transfected cells; host or cells: HEK-293
The experiment can be described thus: ORL1-receptor binding assay ([3H]nociceptin, SPA). Particulars: human ORL1 receptor transfected HEK-293 cell membranes, 0.4 nM [3H]nociceptin; read-out: IC50 value with regard to binding activity for the ORL1 receptor. Here is the method:
The human ORL1 receptor transfected HEK-293 cell membranes were incubated for 45 min at 22° C. with 0.4 nM [^3H]nociceptin, 1.0 mg of wheat germ agglutinin-coated SPA beads and various concentrations of test compounds in a final volume of 200 μl of 50 mM HEPES buffer pH7.4 containing 10 mM MgCl2 and 1 mM EDTA. Non-specific binding was determined by the addition of 1 μM unlabeled nociceptin. After the reaction, the assay plate was centrifuged at 1,000 rpm for 1 min and then the radioactivity was measured by a Liquid Scintillation Counter.
Each percent NSB thus obtained was graphed as a function of compound concentration. A sigmoidal curve was used to determine 50% bindings (i.e., IC50 values).

T1 sequence (P41146 whole entry): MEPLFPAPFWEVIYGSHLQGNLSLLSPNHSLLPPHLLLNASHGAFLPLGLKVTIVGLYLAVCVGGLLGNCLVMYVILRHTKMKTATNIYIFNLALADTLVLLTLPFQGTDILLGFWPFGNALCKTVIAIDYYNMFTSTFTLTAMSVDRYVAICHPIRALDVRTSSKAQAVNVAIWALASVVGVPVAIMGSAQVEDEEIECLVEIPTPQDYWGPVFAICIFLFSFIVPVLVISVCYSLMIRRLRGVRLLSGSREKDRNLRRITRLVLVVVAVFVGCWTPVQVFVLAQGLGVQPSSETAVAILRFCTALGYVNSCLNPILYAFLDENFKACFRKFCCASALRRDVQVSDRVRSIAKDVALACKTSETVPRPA

`CN1CC2(CCN(CC3Cc4c(F)ccc(O)c4CN3)CC2)c2ccccc21` (centres unmarked) [Example 11, 5-Fluoro-3-[(1-methyl-1,2-dihydro-1′H-spiro[indole-3,4′-piperidin]-1′-yl)methyl]-1,2,3,4-tetrahydroisoquinolin-8-ol]: the IC50 is 7.4 nM.

Take `CN1C(=O)C2(CCN(CC3Cc4c(F)ccc(O)c4CN3)CC2)c2ccccc21` (centres unmarked) [Example 22, 1′-[(5-Fluoro-8-hydroxy-1,2,3,4-tetrahydroisoquinolin-3-yl)methyl]-1-methylspiro[indole-3,4′-piperidin]-2(1H)-one]: the IC50 worked out at 4.9 nM.
